Test system: guanosine 5′-monophosphate (disodium salt, Na2[GMP])
Assay: Reaction with model nucleotide GMP (mass spectrometry)
Details: D2O/CD3OD, 1 equiv Na2[GMP], 24 h at 37 °C
Method: The ability of [4]CF3SO3 and [9]CF3SO3 to interact with natural DNA was studied using the ethidium bromide (EB) exchange test (Figure 6), with the concentration of the complexes beingin the 1.5–124 μM range for [4]CF3SO3 and 1.4–135 μM for [9]CF3SO3. Blank experiments were carried out with the two bioactive molecules and also with DMSO to check for solvent/dilution effects. […] However, EB exchange titrations are suitable to recognize fast noncovalent binding events, but not subsequent slow covalent binding. Therefore, since chlorambucil is a DNA-alkylating agent, we studied the possible reaction of [9]CF3SO3 with the nucleotide guanosine 5′-monophosphate (disodium salt, Na2[GMP]; see Figure 4) as a model for DNA binding. Complex [9]CF3SO3 was incubated with a D2O/CD3OD mixture containing GMP for 24 h at 37 °C.
In order to analyze the interaction with a model nucleotide, a freshly prepared solution of [9]CF3SO3 (2 mg) in D2O/CD3OD (5/3 v/v) was treated with 1 equiv of anhydrous Na2[GMP]. The resulting mixture was maintained at 37 °C for 24 h, and then the final solution was filtered in order to remove some solid and analyzed by mass spectrometry. HPLC-MS(+): m/z found 1087.2451 [9^GMP + Na]^+, calcd for C47H53Fe2N8NaO12P 1087.2117; m/z found 555.0666 [9^GMP + 2Na]^2+, calcd for C47H53Fe2N8Na2O12P 555.1008. The isotopic patterns fit well the calculated patterns.

[Fe2Cp2(CO)(μ-CO){μ-η^1:η^3-Cγ(3-C6H4NHC(=O)(CH2)3C6H4N(CH2CH2Cl)2)CβHCαNMe2}]CF3SO3 [[9]CF3SO3]
conversion into the neutral GMP adduct 9^GMP: almost complete conversion
